≈ marks a conversion by molar mass, not a printed value.
How the values were obtained:
Mtb H37Rv (SRI 1345) [1] = assay: MIC broth microdilution, Mtb H37Rv; assay type: cell-based; conditions: Mycobacterium tuberculosis, 168 h, read-out: MIC H37Rv
in vitro = conditions: mouse
Mtb H37Rv (SRI 1345) [2] = assay: Low-oxygen recovery assay (LORA), non-replicating persistence; assay type: cell-based, Mycobacterium tuberculosis; conditions: 7 days anaerobic then 7 days ambient, 37 °C
[3] = system: Mtb H37Rv, INH-R, RMP-R and OFX-R Mtb; assay: MIC screening, all Mtb strains tested; assay type: cell-based, Mycobacterium tuberculosis; conditions: range over H37Rv
[4] = Drug cytotoxicity control plate assay (MTT cell proliferation); conditions: mouse
[5] = assay type: in vitro ADME; conditions: 90 min, 50 μg/mL
Procedure: Aliquots of 0.5 mL of plasma samples (calibration standards) were mixed with 200 μL aliquots of internal standard solution using appropriate concentration (10–90 μg/mL) for PH-189 concentrations. The samples were loaded unto solid phase extraction (SPE) cartridges on a vacuum 20 position extraction manifold (Waters). The cartridges were pre-conditioned with 1 mL of acetonitrile followed by 1 mL of water. The loaded cartridges were washed with 1 mL of acetonitrile and the analytes (PH-189 and internal standard) were eluted with acetonitrile into a 1.5 mL glass vials. The collected samples were filtered using Kinesis syringe membrane filters (Kinesis Ltd, St Neots, UK) (13 mm) and were used for injection and analysis. The PH-189/internal standard ratios were used to calculate calibration curve and to determine PH-189 concentration in human plasma after 90 min at 37 °C.
Accuracy and precision of the UHPLC method for PH-189 was evaluated by preparing six sets of PH-189 in blank human plasma within the concentration ranges of the calibration curve. Accuracy and precision were performed in triplicate using four concentration levels of 1, 10, 50, and 90 μg/mL. […] Freezer-stored samples were thawed, extracted, and analyzed as previously mentioned. […]

[6] = Stock standard solution stability; assay type: physicochemical; conditions: 100 μg/mL in acetonitrile, refrigerator (4 °C)
Procedure: Stock standard solutions of PH-189 and indapamide as internal standard were separately prepared by dissolving 10 mg of the compounds in 100 mL of acetonitrile to give stock concentrations of 100 μg/mL. Working solutions of PH-189 and internal standard were prepared by diluting the stock solutions with acetonitrile to obtain concentrations of 10 μg/mL and 90 μg/mL. Stock solutions were stable for at least 5 weeks when stored in a refrigerator (4 °C).

S. aureus = system: S. aureus; set-up: method as in PMID 23811087; conditions: S. aureus in vitro; cited from earlier work
Mtb H37Rv (SRI 1345) [7] = assay: Minimal bactericidal concentration (MBC); assay type: cell-based; conditions: Mycobacterium tuberculosis, read-out: MBC H37Rv
[8] = system: intracellular (macrophage) Mtb H37Rv (SRI 1345) in J774 cells; assay: Intracellular (macrophage) drug screening assay; assay type: cell-based, Mycobacterium tuberculosis; conditions: range at the three concentrations tested
[9] = Mycobacterium tuberculosis, H37RV, 168 h, read-out: LORA, lowest concentration that visually inhibits growth
[10] = MTT % Viability (High Conc.), high conc., same as in macrophage assay
[11] = MTT % Viability (Low Conc.), low conc., same as in macrophage assay
[12] = MTT % Viability (Mid Conc.), mid conc., same as in macrophage assay

Cc1cn(CC2CN(c3ccc(N4CCN(C(=O)CNC(=O)c5ccc([N+](=O)[O-])o5)CC4)c(F)c3)C(=O)O2)nn1 (centres unmarked) [PH-145]
MIC (Mtb H37Rv (SRI 1345) [1]): 0.5 µM (≈ 0.278 µg/mL) | viability (in vitro; MTT % Viability (High Conc.)): 75% | viability (in vitro; MTT % Viability (Low Conc.)): 87% | viability (in vitro; MTT % Viability (Mid Conc.)): 93%

CCOC(=O)CC(=O)NCC(=O)N1CCN(c2ccc(N3CC(Cn4cc(C)nn4)OC3=O)cc2F)CC1 (centres unmarked) [PH-150]
MIC (Mtb H37Rv (SRI 1345) [1]): 5.8 µM (≈ 3.08 µg/mL) | MIC (Mtb H37Rv (SRI 1345) [2]; [9]): > 58 µM | viability (in vitro; MTT % Viability (High Conc.)): 62% | viability (in vitro; MTT % Viability (Low Conc.)): 78% | viability (in vitro; MTT % Viability (Mid Conc.)): 82%

Cc1cn(CC2CN(c3ccc(N4CCN(C(=O)CN)CC4)c(F)c3)C(=O)O2)nn1 (centres unmarked) [PH-151]
MIC (Mtb H37Rv (SRI 1345) [1]): 5.8 µM (≈ 2.42 µg/mL) | MIC (Mtb H37Rv (SRI 1345) [2]; [9]): > 58 µM | viability (in vitro; MTT % Viability (High Conc.)): 74% | viability (in vitro; MTT % Viability (Low Conc.)): 83% | viability (in vitro; MTT % Viability (Mid Conc.)): 87%

CC(=O)NCC(=O)N1CCN(c2ccc(N3CC(Cn4ccnn4)OC3=O)cc2F)CC1 (centres unmarked) [PH-165]
MIC (Mtb H37Rv (SRI 1345) [1]): 6.7 µM (≈ 2.98 µg/mL) | MIC (Mtb H37Rv (SRI 1345) [2]; [9]): > 58 µM | viability (in vitro; MTT % Viability (High Conc.)): 84% | viability (in vitro; MTT % Viability (Low Conc.)): 91% | viability (in vitro; MTT % Viability (Mid Conc.)): 87%

CCOC(=O)CC(=O)NCC(=O)N1CCN(c2ccc(N3CC(Cn4ccnn4)OC3=O)cc2F)CC1 (centres unmarked) [PH-169]
MIC (Mtb H37Rv (SRI 1345) [1]): 2.9 µM (≈ 1.5 µg/mL) | viability (in vitro; MTT % Viability (High Conc.)): 73% | viability (in vitro; MTT % Viability (Low Conc.)): 76% | viability (in vitro; MTT % Viability (Mid Conc.)): 75%

NCC(=O)N1CCN(c2ccc(N3CC(Cn4ccnn4)OC3=O)cc2F)CC1 (centres unmarked) [PH-172]
MIC (Mtb H37Rv (SRI 1345) [1]): 3.6 µM (≈ 1.45 µg/mL) | MIC (Mtb H37Rv (SRI 1345) [2]; [9]): > 58 µM | MIC (Mtb H37Rv (SRI 1345) [2]; lowest concentration that visually inhibits growth, read-out: LORA): >58 µM | viability (in vitro; MTT % Viability (High Conc.)): 71% | viability (in vitro; MTT % Viability (Low Conc.)): 87% | viability (in vitro; MTT % Viability (Mid Conc.)): 72%

Cc1cn(CC2CN(c3ccc(N4CCN(C(=O)CNC(=O)c5cc([N+](=O)[O-])cc([N+](=O)[O-])c5)CC4)c(F)c3)C(=O)O2)nn1 (centres unmarked) [PH-181]
MIC (Mtb H37Rv (SRI 1345) [1]): 3.3 µM (≈ 2.02 µg/mL) | MIC value range against all Mtb strains tested [3]: 0.052 to 3.3 µM | viability [4, 10]: 39% | viability [4, 11]: 91% | viability [4, 12]: 88%

Cc1cn(CC2CN(c3ccc(N4CCN(C(=O)CNC(=O)C(Cl)Cl)CC4)c(F)c3)C(=O)O2)nn1 (centres unmarked) [PH-182]
MIC (Mtb H37Rv (SRI 1345) [1]): 1.9 µM (≈ 1 µg/mL) | MIC (Mtb H37Rv (SRI 1345) [2]; [9]): 0.015 to 5.7 µM (≈ 0.00793 to 3.01 µg/mL) | viability (in vitro; MTT % Viability (High Conc.)): 87% | viability (in vitro; MTT % Viability (Low Conc.)): 84% | viability (in vitro; MTT % Viability (Mid Conc.)): 90%

Cc1cn(CC2CN(c3ccc(N4CCN(C(=O)CNC(=O)c5cccnc5)CC4)c(F)c3)C(=O)O2)nn1 (centres unmarked) [PH-185]
MIC (Mtb H37Rv (SRI 1345) [1]): 5.7 to 11.5 µM (≈ 2.98 to 6.01 µg/mL) | viability (in vitro; MTT % Viability (High Conc.)): 39% | viability (in vitro; MTT % Viability (Low Conc.)): 88% | viability (in vitro; MTT % Viability (Mid Conc.)): 94%

O=C(NCC(=O)N1CCN(c2ccc(N3CC(Cn4ccnn4)OC3=O)cc2F)CC1)c1ccc([N+](=O)[O-])o1 (centres unmarked) [PH-189]
MIC (Mtb H37Rv (SRI 1345) [1]): 0.5 µM (≈ 0.271 µg/mL) | average amount of PH-189 found in human plasma [5]: 48.79 µg/mL | recovered from human plasma [5]: more than 90% | stock solutions stable for [6]: at least 5 weeks | MIC value in the presence of 50% human plasma (S. aureus): remained unchanged | viability (in vitro; MTT % Viability (High Conc.)): 86% | viability (in vitro; MTT % Viability (Low Conc.)): 98% | viability (in vitro; MTT % Viability (Mid Conc.)): 88%

O=C(NCC(=O)N1CCN(c2ccc(N3CC(Cn4ccnn4)OC3=O)cc2F)CC1)c1cc([N+](=O)[O-])cc([N+](=O)[O-])c1 (centres unmarked) [PH-193]
MIC (Mtb H37Rv (SRI 1345) [1]): 1.7 µM (≈ 1.02 µg/mL) | MIC value range against all Mtb strains tested [3]: 0.052 to 3.3 µM | viability [4, 10]: 74% | viability [4, 11]: 100% | viability [4, 12]: 100%

O=C(NCC(=O)N1CCN(c2ccc(N3CC(Cn4ccnn4)OC3=O)cc2F)CC1)c1cccnc1 (centres unmarked) [PH-195]
MIC (Mtb H37Rv (SRI 1345) [1]): 3.9 µM (≈ 1.98 µg/mL) | viability (in vitro; MTT % Viability (High Conc.)): 71% | viability (in vitro; MTT % Viability (Low Conc.)): 100% | viability (in vitro; MTT % Viability (Mid Conc.)): 100%

CO[C@H]1/C=C/O[C@@]2(C)Oc3c(C)c(O)c4c(O)c(c(/C=N/N5CCN(C)CC5)c(O)c4c3C2=O)NC(=O)/C(C)=C\C=C\[C@H](C)[C@H](O)[C@@H](C)[C@@H](O)[C@@H](C)[C@H](OC(C)=O)[C@@H]1C [RMP, Rifampicin, reference compound]
MIC (Mtb H37Rv (SRI 1345) [1]): 0.06 µM (≈ 0.0494 µg/mL) | MBC (Mtb H37Rv (SRI 1345) [7]): 1.56 µM (≈ 1.28 µg/mL) | MIC (Mtb H37Rv (SRI 1345) [2]; Mycobacterium tuberculosis, H37RV, 168 h, lowest concentration that visually inhibits growth, read-out: LORA): 0.95 µM (≈ 0.782 µg/mL) | Macrophage log reduction in Mtb, range [8]: 1.62–2.43 | viability ([4]; uninfected J774 macrophages, MTT % Viability (High Conc.), high conc., same as in macrophage assay): 84% | viability ([4]; uninfected J774 macrophages, MTT % Viability (Low Conc.), low conc., same as in macrophage assay): 92% | viability ([4]; uninfected J774 macrophages, MTT % Viability (Mid Conc.), mid conc., same as in macrophage assay): 85% | viability ([4]; uninfected J774 macrophages, MTT percent cell viability, range, range at the three concentrations tested): 84 to 92%
